This is an account of results in PubChem BioAssay (NCI).

Among the test systems are DMS 114 small cell lung; DMS 273 small cell lung; HOP-18 NSCLC; HS 578T breast; MDA-N; NCI/ADR-RES ovarian; P388 leukemia; P388/ADR leukemia; SN12K1 renal; XF 498 CNS; LXFL 529 NSCLC; RXF-631 renal.
Holding throughout (assay): NCI tumour cell line growth inhibition, 48 h

Several values for one entry are separate records, joined by “and”; a condition that tells them apart may be missing. Identical values can stand only once.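 The compound was tested at five concentrations on cells cultured in 96-well plates, with a 48-hour exposure period. GI50 = concentration required for 50% inhibition of growth. The concentration for full growth arrest is given as TGI.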

For `CC(=O)O[C@H]1C(=O)O[C@@H]2C[C@H]3C(C)=CC(=O)[C@@H](O)[C@]3(C)[C@H]3[C@@]4(O)OC[C@]32[C@@H]1[C@@H](C)[C@H]4O`, the TGI in the experiment on DMS 114 small cell lung was 0.041 µM; in the experiment with DMS 273 small cell lung, 0.0682 µM; in the experiment on HOP-18 NSCLC, 1.53 µM; with HS 578T breast, 0.19 µM; in the experiment with MDA-N, 0.127 µM; in the experiment on NCI/ADR-RES ovarian, 15.2 µM and 51.4 µM. The TGI came to 0.555 µM with P388 leukemia, 7.51 µM with P388/ADR leukemia, 0.0696 µM in the experiment on SN12K1 renal and 0.243 µM in the experiment on XF 498 CNS. Further, the GI50 in the experiment with NCI/ADR-RES ovarian was 0.844 µM.

Consider `COc1cc(/C=C2\[C@H]3c4c(c(OC)c(C)c(OC)c4OC)C[C@@H](C(=O)N2Cc2ccccc2)N3C(=O)OC(C)C)c(OC)c(C)c1OC`, for which the TGI in the experiment with DMS 114 small cell lung, in the experiment with DMS 273 small cell lung, with HOP-18 NSCLC, in the experiment with LXFL 529 NSCLC and with RXF-631 renal was more than 100 µM throughout.

Take `O=C(NCc1ccccc1)c1cc2cc(O)c(O)cc2cn1`: the TGI is 24 µM in the experiment on DMS 114 small cell lung; 23.2 µM in the experiment with DMS 273 small cell lung; 41.4 µM with HOP-18 NSCLC; more than 100 µM in the experiment with LXFL 529 NSCLC; 90.3 µM in the experiment with XF 498 CNS.

In the case of `O=C1CCCC2=C(N1)C(=O)C=CC2=O`, the TGI is more than 56.5 µM in the experiment on DMS 114 small cell lung; more than 100 µM in the experiment on DMS 273 small cell lung; more than 100 µM with HOP-18 NSCLC; 79.4 µM in the experiment with HS 578T breast; more than 100 µM in the experiment with LXFL 529 NSCLC; 30.9 µM in the experiment on MDA-N. Also, the results for the TGI in the experiment with NCI/ADR-RES ovarian, in the experiment with RXF-631 renal and in the experiment with XF 498 CNS were more than 70.5 µM, more than 100 µM and more than 100 µM, respectively.

Consider `CCOc1ccccc1N=Nc1c(-c2ccccc2)nn(C(=O)CC(=O)Nc2cccc(Cl)c2)c1-c1ccccc1`, for which the TGI with DMS 114 small cell lung, in the experiment on DMS 273 small cell lung, with HOP-18 NSCLC, in the experiment with LXFL 529 NSCLC and in the experiment on XF 498 CNS was more than 100 µM in each case.

Take `N/C(=N\N=C\c1cccs1)NO`: the TGI in the experiment with DMS 114 small cell lung, in the experiment on DMS 273 small cell lung, in the experiment with HOP-18 NSCLC, in the experiment on LXFL 529 NSCLC, with RXF-631 renal and in the experiment with XF 498 CNS was more than 100 µM throughout.

For the compound `CC(=O)NC(CCCCNC(=O)N(CCCl)N=O)C(=O)NCc1ccccc1` (configuration not stated), the TGI in the experiment with DMS 114 small cell lung, in the experiment on DMS 273 small cell lung, with HOP-18 NSCLC, with LXFL 529 NSCLC, in the experiment with RXF-631 renal and in the experiment with XF 498 CNS was more than 100 µM each time.

`O=C(O)C1NCCc2c1[nH]c1ccccc21` (configuration not stated): the TGI is more than 100 µM in the experiment on DMS 114 small cell lung; more than 100 µM with DMS 273 small cell lung; more than 100 µM with HOP-18 NSCLC; more than 10 µM in the experiment with HS 578T breast; more than 100 µM with LXFL 529 NSCLC; more than 10 µM in the experiment with MDA-N. The TGI is more than 10 µM in the experiment on NCI/ADR-RES ovarian and more than 100 µM in the experiment on RXF-631 renal.

Turning to `CN(C)C(=O)/N=c1\ss/c(=N\C(=S)N(C)C)n1-c1ccccc1`, the GI50 was 0.0334 µM in the experiment with DMS 114 small cell lung, 30 µM in the experiment on DMS 273 small cell lung and more than 100 µM with HOP-18 NSCLC. Also, the TGI in the experiment on DMS 273 small cell lung is more than 100 µM; with HOP-18 NSCLC, more than 100 µM; with LXFL 529 NSCLC, more than 88.4 µM; in the experiment on RXF-631 renal it was more than 100 µM; in the experiment on XF 498 CNS it was more than 85.4 µM.

Regarding `COC(=O)C(=O)C(C(=O)C(=O)Nc1ccc(Cl)cc1C)c1nc2ccc(C(=O)c3ccccc3)cc2[nH]c1=O` (configuration not stated), the TGI with DMS 114 small cell lung, with DMS 273 small cell lung, with HOP-18 NSCLC, in the experiment with LXFL 529 NSCLC and in the experiment on RXF-631 renal was more than 100 µM each time.

As for `C=C[C@]1(C)CCC2=C(CCC3C2(C)CCC[C@]3(C)CO)C1` (some centres not stated), the TGI with DMS 114 small cell lung was 74.6 µM; with DMS 273 small cell lung, more than 100 µM; in the experiment with HOP-18 NSCLC it was more than 100 µM; in the experiment on LXFL 529 NSCLC it was more than 100 µM; with RXF-631 renal, more than 100 µM; with XF 498 CNS, more than 100 µM.

`CN=C1Nc2ccc(Cl)cc2C(c2ccccc2)=NN1C`: the TGI in the experiment with DMS 114 small cell lung, in the experiment with DMS 273 small cell lung, with LXFL 529 NSCLC, in the experiment with RXF-631 renal and with XF 498 CNS was more than 100 µM throughout.

For the compound `CCC1=C(C)/C(=C/c2[nH]c(CBr)c(CC)c2C)N=C1CBr`, the TGI was 27.8 µM in the experiment on DMS 114 small cell lung; more than 100 µM in the experiment on DMS 273 small cell lung; 24.7 µM in the experiment with HOP-18 NSCLC; 17.9 µM in the experiment on LXFL 529 NSCLC; more than 100 µM in the experiment on RXF-631 renal.

For the compound `CC1(C)OC(C(N)=O)=C(C(N)=O)O1`, the TGI with DMS 114 small cell lung, in the experiment on DMS 273 small cell lung, in the experiment on HOP-18 NSCLC, with LXFL 529 NSCLC and in the experiment with XF 498 CNS was more than 100 µM throughout.

`COC(=O)C1(C(=O)OC)CC2c3c(c4ccccc4n3C)CC(C1=O)N2Cc1ccccc1` (configuration not stated): the TGI in the experiment on DMS 114 small cell lung, in the experiment with DMS 273 small cell lung, in the experiment with LXFL 529 NSCLC, with RXF-631 renal and with XF 498 CNS was more than 100 µM each time.

On to `C/C=C/C=N/N(C(=O)c1cc([N+](=O)[O-])cc([N+](=O)[O-])c1)C1=NC(c2ccccc2)C(c2ccccc2)=NN1` (configuration not stated), for which the TGI is 48.4 µM with DMS 114 small cell lung; more than 100 µM in the experiment with DMS 273 small cell lung; more than 100 µM in the experiment on HOP-18 NSCLC; more than 100 µM in the experiment on RXF-631 renal; more than 100 µM in the experiment with XF 498 CNS.

On to `CC(=O)OCc1cc(OC(C)=O)cnc1COC(C)=O`, for which the TGI in the experiment on DMS 114 small cell lung, in the experiment with DMS 273 small cell lung, with HOP-18 NSCLC, with LXFL 529 NSCLC, in the experiment with RXF-631 renal and in the experiment on XF 498 CNS was more than 100 µM throughout.

For `Cc1ccccc1NC(=O)C(=O)C(c1cnc2ccc([N+](=O)[O-])cc2n1)[N+](=O)[O-]` (configuration not stated), the TGI with DMS 114 small cell lung, in the experiment with DMS 273 small cell lung, in the experiment on HOP-18 NSCLC and in the experiment with RXF-631 renal was more than 100 µM in each case.

For the compound `C#CCOCn1cnc2c(=S)nc[nH]c21`, the TGI in the experiment with DMS 114 small cell lung, with DMS 273 small cell lung, with LXFL 529 NSCLC, in the experiment with RXF-631 renal and with XF 498 CNS was more than 100 µM in each case.

Regarding `CNNCc1ccc(C(=O)NC(C)C)cc1`, the TGI in the experiment with DMS 273 small cell lung was more than 500 µM; in the experiment on HOP-18 NSCLC, 139 µM and > 500 µM; with HS 578T breast, more than 500 µM; in the experiment on LXFL 529 NSCLC, more than 500 µM; with MDA-N, more than 500 µM; in the experiment with NCI/ADR-RES ovarian, more than 500 µM. The TGI with P388 leukemia was more than 500 µM; with P388/ADR leukemia, more than 500 µM; in the experiment on SN12K1 renal, more than 456 µM; in the experiment with XF 498 CNS, more than 500 µM. Also, the GI50 with HOP-18 NSCLC was more than 500 µM.

As for `Nc1ncnc(NC2C=C(CO)C(O)C2O)c1[N+](=O)[O-]` (configuration not stated), the TGI in the experiment with DMS 114 small cell lung, in the experiment on DMS 273 small cell lung, with HOP-18 NSCLC, in the experiment on LXFL 529 NSCLC and in the experiment with RXF-631 renal was more than 100 µM in each case.

Consider `N=C1N(c2ccccc2)C(=O)C23CCCC2C13N1CCOCC1` (configuration not stated), for which the TGI with DMS 114 small cell lung, in the experiment with DMS 273 small cell lung, in the experiment on HOP-18 NSCLC, in the experiment on LXFL 529 NSCLC and in the experiment on RXF-631 renal was more than 100 µM each time.

With `COC(=O)C1=CN=C(C(=O)OC)NN1`, the TGI with DMS 114 small cell lung, with HOP-18 NSCLC, in the experiment with LXFL 529 NSCLC, in the experiment on RXF-631 renal and in the experiment with XF 498 CNS was more than 100 µM each time.

`COC(=O)C(C(=O)C(=O)Nc1ccccc1C(C)=O)c1nc2ccc(Cl)cc2[nH]c1=O` (configuration not stated): the TGI with DMS 114 small cell lung, in the experiment with HOP-18 NSCLC, with LXFL 529 NSCLC and in the experiment on RXF-631 renal was more than 100 µM each time.

For the compound `O=C(O)c1ccc(O)c(N=Nc2cc(S(=O)(=O)O)c3ccccc3c2O)c1`, the TGI in the experiment with DMS 114 small cell lung, in the experiment on DMS 273 small cell lung and in the experiment with RXF-631 renal was more than 100 µM throughout.

Regarding `COC1C=CC(C(=O)[N+]2=Cc3[nH]c4ccccc4c3CC2)O1` (configuration not stated), the TGI in the experiment on DMS 114 small cell lung, with DMS 273 small cell lung, in the experiment with HOP-18 NSCLC, in the experiment with LXFL 529 NSCLC and in the experiment with RXF-631 renal was more than 100 µM in each case.
